Molecules are shown by their SMILES.

The values below come from US20090018146A1, “Combination Therapy with Triterpenoid Compounds and Proteasome Inhibitors” (Research Development Corporation, priority 2005, published 2009).

Common to all, as to assay type: cell-based, human
The test system of one data set is HSF1. In words: Western blot of HSF1 in cytoplasmic and nuclear extracts of Jurkat cells. Here is the method: (§1) Jurkat T cells (2 μg/ml=1 μM), U-937 (4 μg/ml), MJ (5 μg/ml), and HH cells (2.5 μg/ml) were treated for 0-24 hours with the indicated concentrations of avicin D. PBLs from the patients or normal blood were treated with 5 μg/ml of avicin D for 24 hours.
(§2) At the end of treatments, cells were harvested, washed with sterile ice-cold PBS and cytoplasmic extracts (CE) were prepared by lysing the cells in CE buffer containing 10 mM Hepes-Cl pH 7.5, 10 mM KCl, 0.1 mM EDTA, 0.1 mM EGTA, 0.3% NP40, and a protease inhibitor cocktail (Sigma). After centrifugation and separating the supernatant (CE proteins), the pellet was resuspended in a buffer containing 20 mM Hepes-Cl, 400 mM NaCl, 1 mM EDTA, 1 mM EGTA, and protease inhibitor cocktail (Sigma). The nuclear protein extraction proceeded for 30 min. on ice followed by centrifugation at 14,000 rpm for 5 min at 4° C. The clear supernatant containing nuclear proteins (NE) was collected, glycerol (10%) was added, and proteins stored at −80° C. until use.
(§3) SDS-PAGE and immunoblot procedures were essentially performed as described (Sambrook, 1989). […] Protein bands were detected using the ECL chemiluminescence kit from Amersham as per the manufacturer's protocol.
(§4) Quantitation of proteins (western) and transcripts (RT-PCR) was performed using the NIH 1.61 image software.
On the technique in general: In western blotting, separated proteins are transferred to a membrane and probed.

A further data set has as its system Hsp70α transcript. The experiment in a line: One-step RT-PCR of Hsp70α transcript in Jurkat cells. Particulars: as early as 30 minutes. The procedure: (§5) Total RNA purified using Trizol method (Invitrogen) was subjected to DNAseI (RNAase free, Sigma Chemical Co.) treatment to remove any residual DNA, followed by heat inactivation and addition of 1 mM EDTA. Absence of genomic DNA was confirmed by performing PCR using Taq DNA polymerase. About 50-100 ng of purified total RNA was used in a one-step RT-PCR reaction kit from Invitrogen in a Techne Genius machine. The samples were separated on 0.8% agarose-TBE gels and viewed by staining with ethidium bromide.
as §4

The next data set concerns Hsp90β transcript. The experiment in a line: One-step RT-PCR of Hsp90β transcript in Jurkat cells. Particulars: as early as 30 minutes. The procedure:
as §5, §4

The subject of the next data set is Hsp90 transcript. In words: Northern blot of Hsp90 transcript in Jurkat cells. From the text:
Total RNA from the control and avicin treated Jurkat T cells was made using Trizol (Invitrogen). Equal amounts of RNA were separated on form amide gels and transferred to nylon membranes (Hybond N+, Amersham) and UV cross-linked using UV Stratalinker (Stratagene). Staining the membranes with 0.03% methylene blue solution in 0.3% sodium acetate, pH 5.2, monitored equal loading. The DNA probes for Hsp70 and Hsp90 were purchased from StressGen as pUC plasmids and used according to the manufacturer's protocol. The DNA fragments were radiolabeled using a Nick Translation kit from Gibco BRL and [^32P] dCTP (Amersham). The membranes were exposed for autoradiography after hybridization using ExpressHyb (Clontech) solution at 58° C. for 1 hour and 5 washes, each of 20 minutes, with 5× SSC containing 0.1% SDS at 50° C.

The subject of a further data set is his-ub-Hsp70. In words: In vivo ubiquitination of Hsp70 in his-ub transfected Jurkat cells. Particulars: his-ub transfected Jurkat cells, avicin D 1 μM, 2 and 4 hours, p<0.05. Here is the method: Jurkat T-cells were transfected with a plasmid pDG268 that expresses a fusion protein of histidine-tagged human ubiquitin and enhanced GFP. Transfection was performed using μm ax a Biosystems kit and their protocol. After 24 hours of transfection, cells were harvested, resuspended at a density of 10^6 cells/ml before treatment with lactacystin or avicin D.
Jurkat T cells transfected with the his-ub plasmid construct were treated with lactacystin (10 μM) or with avicin D (1 μM) for 4 hours. Cells were harvested and CE prepared as described above. […] The affinity purified histidine-tagged proteins were separated on SDS-PAGE and analyzed on western blots for ub-Hsp70 proteins.

The test system of a further data set is E3α ubiquitin ligase. The experiment in a line: Western blot of E3α ubiquitin ligase in Jurkat cells. Particulars: peak at one hour of treatment. The procedure: as §1, §2, §3
In the next data set the test system is CHIP. The experiment in a line: Western blot of CHIP in Jurkat cells. To be noted: same conditions as E3α. The procedure:
as §1, §2, §3

Data set [1] has as its system XIAP. In words: Western blot of XIAP protein in Jurkat cells. The procedure:
as §1, §2
SDS-PAGE and immunoblot procedures were essentially performed as described (Sambrook, 1989). Briefly, cytoplasmic and nuclear proteins were resolved on SDS-PAGE, blotted on PVDF membranes (BioRad) and probed with various antibodies followed with anti-rabbit, anti-mouse antibody conjugated to horseradish peroxidase (HRP) from BioRad or HRP conjugated anti-goat antibody from Santa Cruz Biotechnology, corresponding to the primary antibody. Protein bands were detected using the ECL chemiluminescence kit from Amersham as per the manufacturer's protocol.
as §4

The subject of the next data set is caspase 3. In words: Western blot of caspase 3 activation in Jurkat cells. Particulars: 2-4 hours. Here is the method:
as §1, §2, §3

Data set [2] deals with Hsp70. The experiment in a line: Western blot of Hsp70 in leukemic/lymphoma cell-lines. To be noted: Jurkat, U937, MJ-1, and HH cells, 24 hours post-treatment. Here is the method:
(§6) Human Jurkat T cell leukemia, monocytic U937 cells, and cutaneous T-cell lymphoma (CTCL) cell lines MJ (G11) and HH were obtained from American Type Culture Collection (Rockville, Md.) and grown in RPMI 1640 medium supplemented with 10% FBS and 2 mM glutamine.
as §1
(§7) At the end of treatments, cells were harvested, washed with sterile ice-cold PBS and cytoplasmic extracts (CE) were prepared by lysing the cells in CE buffer containing 10 mM Hepes-Cl pH 7.5, 10 mM KCl, 0.1 mM EDTA, 0.1 mM EGTA, 0.3% NP40, and a protease inhibitor cocktail (Sigma). After centrifugation and separating the supernatant (CE proteins), the pellet was resuspended in a buffer containing 20 mM Hepes-Cl, 400 mM NaCl, 1 mM EDTA, 1 mM EGTA, and protease inhibitor cocktail (Sigma). […]
as §3, §4

Data set [3] relates to XIAP. The experiment in a line: Western blot of XIAP in leukemic/lymphoma cell-lines. Particulars: Jurkat, U937, MJ-1, and HH cells, 24 hours post-treatment. Here is the method:
as §6, §1, §7, §3, §4

Data set [4] relates to XIAP. The experiment in a line: Western blot of XIAP in primary PBL from Sezary syndrome patients. Particulars: 5 μg/ml, 24 hours. Here is the method: as §1, §2, §3, §4
A further data set concerns CTCL cells. In words: Apoptosis in PBL from Sezary syndrome patients. The procedure:
as §1

Data set [5] has as its system Hsp70. The experiment in a line: Western blot of Hsp70 in normal PBL. To be noted: PBL from a normal blood sample, 5 μg/ml, 24 hours. Here is the method: as §1, §2, §3
For data set [6], the system named is XIAP. In words: Western blot of XIAP in normal PBL. To be noted: PBL from a normal blood sample, 5 μg/ml, 24 hours. The procedure:
as §1, §2, §3

Data set [7] concerns PBL from a normal blood sample. The experiment in a line: Apoptosis in normal PBL. The procedure:
as §1

`C=C[C@](C)(O)CC/C=C(\CO)C(=O)O[C@H]1[C@H](O)[C@@H](O)[C@H](O[C@@](C)(C=C)CC/C=C(\CO)C(=O)O[C@H]2C[C@]3(C(=O)O[C@@H]4O[C@H](CO)[C@@H](O)[C@H](O)[C@H]4O[C@@H]4O[C@@H](C)[C@H](O[C@@H]5O[C@@H](CO)[C@H](O)[C@H]5O)[C@@H](O[C@@H]5O[C@H](CO)[C@@H](O)[C@H](O)[C@H]5O)[C@H]4O)[C@H](O)C[C@]4(C)C(=CC[C@@H]5[C@@]6(C)CC[C@H](O[C@@H]7O[C@H](CO[C@@H]8O[C@H](C)[C@H](O)[C@H](O)[C@H]8O[C@@H]8OC[C@@H](O)[C@H](O)[C@H]8O)[C@@H](O)[C@H](O)[C@H]7NC(C)=O)C(C)(C)[C@@H]6CC[C@]54C)[C@@H]3CC2(C)C)O[C@@H]1C` [avicin D]: the “increase in the levels of nuclear HSF1” value with HSF1 (4 hours, nuclear extract, densitometric scanning) was roughly 1.5 fold. Also, the “cytoplasmic content of HSF1 protein” value with HSF1 (cytoplasmic extract) was “No apparent change”. Further, the “increase in the Hsp70α transcript (RT-PCR)” value with Hsp70α transcript was roughly 1.6 fold. For the same compound, the “increase in the Hsp90β transcript (RT-PCR)” value with Hsp90β transcript is recorded as roughly 1.4 fold. In addition, the “increase in Hsp90 transcript (Northern blot)” value with Hsp90 transcript is reported as roughly 2 fold. Also, in the data set with his-ub-Hsp70, the “decrease in the levels of his-ub-Hsp70 protein band” value is 40%. For the same compound, the E3α protein level entry in the data set on E3α ubiquitin ligase is given as “dramatic increase”. Also, the “levels of CHIP” value with CHIP is given as “No significant change”. This compound also yielded an XIAP degraded in the data set with XIAP [1] (by 1 hour) of roughly 60%. The XIAP protein level entry in the data set with XIAP [1] (starting at 1 hour post treatment) and in the data set on XIAP [3] was “significant decrease” each time. Besides, in the data set on caspase 3, the “caspase 3 activation” value was “caspase 3 activation”. Further, in the data set on Hsp70 [2], the Hsp70 protein level result is “significant decrease”. In addition, the “decrease in XIAP protein” value in the data set with XIAP [4] is given as 30-40%. Further, the apoptosis result is on record as “caused apoptosis” with CTCL cells and “resistant to apoptosis” in data set [7]. Moreover, the “change in Hsp70 protein” value in the data set with Hsp70 [5] is “no significant change”. Moreover, the “change in XIAP protein” value in the data set with XIAP [6] was “no significant change”.
